Columns and labels:
[1] = test system: bacterial and/or virus infection of respiratory tract; test: Healing from more severe respiratory tract infection in S1, Example 1d; type: in vivo, human
Text: Clear symptoms of bacterial and/or virus infection in S1 had started 7 days earlier. Original cause of the disease can also be acquired earlier, i.e. it can have been some hiding pathogen like tuberculosis bacteria that exploits tempting opportunities to attack the body when its defenses are weakened by some physical and/or mental stress (in this case stress could have been also positive stress from overly active days). […] On Friday, they were in an activity theme park with the family and next day, on Saturday they drove for 2 hours to a birthday party lasting to Sunday morning hours, and finally on Sunday visited museum that required 500 km of extra driving there and back. Next day, i.e. on Monday morning, the initiation of infectious condition was felt very clearly.
On Friday afternoon, fever had risen to 37.40 Celsius that is relatively high fever for S1 whose normal temperature is 36.60 Celsius (C) in rest during the day. Fever remained at 37.40 C until the night. During Saturday, the disease and related fever continued. On Sunday morning, temperature was slightly elevated (36.58 C) compared to the normal morning temperature (36.2-36.4 C). Otherwise the general condition was good on this Sunday morning but during the day fever again rose to 37.15 C by the afternoon and the symptoms in respiratory tract got more severe, resembling intensifying bronchitis or similar inflammatory condition.
By Sunday afternoon it started to seem evident that the immune system of S1 (even assisted by almost perfect rest for 3 days already) would not be able to provide a fast resolution to the potentially serious infectious condition. The Double and the Local Enforcements should be started as soon as possible. (Note: acute fever responses, presented in FIG. 5 and FIG. 11 for S1 have been observed from following administrations of D-glyceric acid in water and calcium salt dehydrate.)
At 12:41 S1 took 2×250 mg of D-glyceric acid calcium salt mixed into water to initiate the DGA Activation. At 0715 pm S1 took 2×180 mg of D-glyceric acid calcium salt mixed into water to keep the DGA Activation alive.

[2] = 4-day healthy human nutritional test, blood bilirubin; type: in vivo; details: 5-6 mg/kg/twice a day
Method: S4 had already participated in 4-day healthy volunteer test with the DGA Activation. In that earlier non-acute DGA dosing experiment the last dose of D-glyceric acid mixed into water was received previous night, i.e. 10-12 hours before the blood test. In this test the positive effects of the DGA Activation in health/subclinical stress were observed. […] This was the case for all tested subjects including S1 in Examples 1b-1d (see Table 1e below).

[3] = test system: acute bowels inflammation caused by diverticulitis; test: Healing from acute inflammatory bowels disease (diverticulitis) in S4, Example 1e; type: in vivo, human
Text: In Example 1e the resolution of gastrointestinal tract infection in another subject 4 (S4) has been shown. Like in S1 also in S4 the HO-1 pathway is clearly activated by the DGA Activation. This is indirectly shown by the clear reduction of blood bilirubin in Table 1e. […] During last few years these seldom but acute inflammations in the gastrointestinal tract have been mostly in the colon and caused by inflammation in Colonic diverticula. […] The only functioning therapy for inflammatory bowels disease has been the administration of strong intravenous antibiotics.
Like other tests with unhealthy humans also this test was done because there were no other efficient substances available. When symptoms of increased bowels inflammation/diverticulosis started S4 was on holiday abroad with very difficult access to any specialized doctor not to mention any hospital. […] Simultaneously with inflammatory symptoms and maybe partially enhancing them S4 experienced constipation.
By Saturday night on the 4th day of gradually increasing acute inflammation in the colon, S4 decided to test whether DGA Activation in combination with paracetamol would assist in resolving this already rather serious inflammation. There were no other available options at that moment. This decision was also supported by confidential information received on positive results with S1 (Examples 1b and 1c).
Saturday night at 0737 pm first 260 mg of D-glyceric acid calcium salt mixed into water was taken with 2×500 mg of paracetamol. Another additional 260 mg dose of DGAcs mixed into water was taken the same night at 1020 pm. Altogether the starting dose was 9 mg/kg i.e. relatively high. High initial dose was chosen because of high level of inflammation.

[4] = test system: eimeria acervulina, eimeria maxima and eimeria tenella; test: Coccidial challenge in broiler chickens, Example 1g; type: in vivo; details: for overall lesion score, difference to 0-control: day 21
[5] = test system: primary human hepatocytes; test: Net ROS generation in human primary hepatocytes; type: cell-based; details: donors
Method: D-glycerate is coded as RH013001 in the graph. […] ARE -activation happens when Nrf2 detaches from cytosolic KEAP1 enzyme and moves to nucleus (SCHEME B).
(§1) FIG. 13b: Gene Expression results from Primary Hepatocytes after 48 h+2 h of the DGA Activation vs. 0-control. […] Combined test for PGC-1a yielded P-value of some 10%. Primary human hepatocytes were purchased from Celsis In Vitro Technologies (1450 South Rolling Road Baltimore, Md. 21227, USA). Primary hepatocytes were received from three different post mortem human donators. […] This is also the case for DOO.

HO-1, CYP2B6, PGC-1a = test: Gene expression in primary human hepatocytes after 48 h+2 h; type: cell-based
Method: as §1
In this experimental model the cells in the 0-Control and in the two DGA Activation groups were normally and identically incubated before DGA Activation. Incubation the medium is changed every 24 hours. When the 48 hour+2 hour DGA Activation started, the only difference was the addition of either 1.4 μM or 14 μM of DGA to the used medium. The D-glyceric acid calcium salt was carefully mixed in to medium before the administration. Thus, it was separated from the calcium salt.

[6] = 1.4 μM, combined data, P-value approximately 1%

## O=C(O)[C@H](O)CO [DGA, D-glyceric acid]
[1]; S1, Monday
  body temperature, highest during workday: 36.87 C
[1]; S1, Monday 0630 am
  body temperature: 36.38 C
[1]; S1, Monday 0900 pm
  body temperature: 36.71 C
[1]; S1, Monday 1036 pm
  body temperature: 36.68 C
[1]; S1, Sunday 07:10 pm, before second dose
  body temperature: 36.60 C
[1]; S1, Sunday 0648 pm after 2×250 mg at 12:41, 37.15 C before
  body temperature: 36.58 C
[1]; S1, Sunday 0652 pm
  body temperature: 36.52 C
[1]; S1, Sunday 1015 pm
  body temperature: 36.60 C
[1]; S1, Sunday 1035 pm
  body temperature: 36.61 C
[2]; subject S1
  S-Bil-Kj, 4 day change from zero control: −17.4%
[2]; subject S1, fasting blood, non-acute
  S-Bil, 4 day change from zero control: −19.1%
[2]; subject S2
  S-Bil, 4 day change from zero control: −22.8%
  S-Bil-Kj, 4 day change from zero control: −23.3%
[2]; subject S3
  S-Bil, 4 day change from zero control: −58.1%
  S-Bil-Kj, 4 day change from zero control: −58.4%
[2]; subject S4
  S-Bil, 4 day change from zero control: −12.6%
  S-Bil-Kj, 4 day change from zero control: −8.8%
[3]; S4
  time needed to turn the inflammatory process clearly down: ~36 h
[3]; S4, Sunday 0910 am, morning after 2×260 mg DGAcs with 2×500 mg paracetamol
  defecation: could defecate (almost normally) for the first time in 3 days
[3]; S4, Wednesday morning, after 240 mg twice a day
  pains in bowels: All the pains in bowels had disappeared
[4]; DGA1 group
  mortality after 14 days: no mortality
  oocyst count at 7 and 11 days post infection: decreased in DGA1 group already in 7 days to similar levels than in P-control
  oocyst count at 5 days (acute phase): less than in 0-control
  overall lesion score, difference to 0-control: statistically significant only in P-control
[4]; DGA1 group, appr. 9 mg/kg/day DGAcs in feed, 14-35, 21-35, 28-35 days, p-values 0.04 to 0.05
  feed conversion rate (FCR) vs 0-control: statistically significantly better
[4]; DGA1 group, p-value 0.002
  body weight gain (14-35 days) vs 0-control: statistically very significantly higher
[4]; DGA1 group, pairwise t-test p 0.04
  difference in oocyst counts after the infection vs 0-control: statistically significant
[4]; DGA½ group
  number of oocyst in 7 and 11 day measurements: declined to almost similar levels than in P-control
  overall lesion score, difference to 0-control: statistically significant only in P-control
[4]; DGA½ group, appr. 4.5 mg/kg/day
  feed conversion rate (FCR) vs 0-control: better compared to 0-control
[4]; DGA½ group, one bird clearly ill at slaughtering
  mortality after 14 days: no mortality
[4]; DGA½ group, pairwise t-test p 0.03
  difference in oocyst counts after the infection vs 0-control: statistically significant
[5]
  net ROS generation: declined for both JGM and CDP statistically very significantly
HO-1, CYP2B6, PGC-1a; [6]
  CYP2B6 expression vs control: statistically significantly different from control
  HO-1 expression vs control: statistically significantly different from control
HO-1, CYP2B6, PGC-1a; combined test P-value of some 10%
  PGC-1a expression vs control: activated compared to control
HO-1, CYP2B6, PGC-1a; primary human hepatocytes in vitro
  increase of HO-1 expression: 50-80%

Reference: US20190008810A1, “METHOD FOR PREVENTION, TREATMENT AND ALLEVIATION OF INFECTIOUS DISEASES AND DISORDERS” (REPLICON HEALTH OY, priority 2016, published 2019)
